No end group written: not given here.
Tests used:
[1] = system: L. fleischmannii (DSM24998); assay: Growth inhibition assay (MIC), L. fleischmannii; assay type: cell-based, Listeria fleischmannii; settings: 384-well plates, BHIB, 37 °C, peptide 0.015–250 µM; growth totally inhibited; average of n ≥ 3; dash = no inhibition
Description: (§1) The minimal inhibitory concentration (MIC) of each AMPs was determined against the Gram-positive bacteria Listeria monocytogenes (DSM20600), L. grayi (DSM20601), L. fleischmannii (DSM24998), Staphylococcus aureus (DSM2569) and Micrococcus luteus (DSM20030), and the Gram-negative species Escherichia coli (D31) and Pseudomonas aeruginosa (DSM50071). The scorpion peptides were prepared at concentrations of 0.015–250 μM. The assays were carried out in 384-well plates (Greiner Bio One, Frickenhausen, Germany) using Brain Heart Infusion Broth (BHIB) medium for Listeria spp., Tryptic Soy Broth (TSB) for S. aureus, and lysogeny broth (LB) for the others. The bacteria were cultivated overnight at either 37 °C (Listeria spp., S. aureus, E. coli and P. aeruginosa) or 30 °C (M. luteus) and subcultured in fresh media before the growth inhibition assays. Growth inhibition was measured as previously described.

Escherichia coli (D31) = assay: Growth inhibition assay (MIC), E. coli; assay type: cell-based; settings: 384-well plates, LB, 37 °C, peptide 0.015–250 µM; growth totally inhibited; average of n ≥ 3; dash = no inhibition
Description: as §1

L. grayi (DSM20601) = assay: Growth inhibition assay (MIC), L. grayi; assay type: cell-based, Listeria grayi; settings: 384-well plates, BHIB, 37 °C, peptide 0.015–250 µM; growth totally inhibited; average of n ≥ 3; dash = no inhibition
Description: as §1

[2] = system: Listeria monocytogenes (DSM20600); assay: Growth inhibition assay (MIC), L. monocytogenes; assay type: cell-based; settings: 384-well plates, BHIB, 37 °C, peptide 0.015–250 µM; growth totally inhibited; average of n ≥ 3; dash = no inhibition
Description: as §1

[3] = system: Micrococcus luteus (DSM20030); assay: Growth inhibition assay (MIC), M. luteus; assay type: cell-based; settings: 384-well plates, LB, 30 °C, peptide 0.015–250 µM; MIC = concentration at which growth was totally inhibited; average of n ≥ 3; dash = no inhibition
Description: as §1

[4] = system: Staphylococcus aureus (DSM2569); assay: Growth inhibition assay (MIC), S. aureus; assay type: cell-based; settings: 384-well plates, TSB, 37 °C, peptide 0.015–250 µM; growth totally inhibited; average of n ≥ 3; dash = no inhibition
Description: as §1

[5] = Cytotoxicity, alamarBlue, BHK-21 cells; assay type: cell-based, hamster; settings: hamster, 2 h at 37 °C, 0.1–100 µM, alamarBlue fluorescence, non-linear fit, concentration reducing viability by 50%, n ≥ 3, read-out: EC50 (effective cytotoxic concentration)
Description: (§2) Cytotoxicity was evaluated using the baby hamster kidney cell line (BHK-21) included in F2H®-Kit Basic (Chromotek, Planegg-Martinsried, Germany). The BHK-21 cells were grown in 25-cm^2 cell culture flasks (Greiner Bio One, Frickenhausen, Germany) containing Dulbecco’s Modified Eagle’s Medium (DMEM) supplemented with 4.5 g/L glucose, 110 mg/L sodium pyruvate and L-glutamine, and 10% fetal bovine serum (FBS), and were maintained in an NU-5810 incubator (ibs tecnomara, Fernwald, Germany) at 37 °C with a 5% CO2 atmosphere. The cells were subcultured at ~90% confluence by detaching with 0.25% trypsin and 0.03% EDTA (Sigma-Aldrich, St Louis, MO, USA). The AMPs were dissolved in water and diluted to final concentrations of 0.1, 1, 10 and 100 µM in DMEM.
(§3) BHK-21 cells were prepared and tested as previously described. Confluent cells were detached, counted and seeded at a concentration of 8.5 × 10^4 cell/mL in a 96-well culture plate (Greiner Bio One-Cell Star) 48 h before each experiment. The cells were rinsed with 100 µL PBS before adding 100 µL of the AMP solution and incubating for 2 h at 37 °C. The AMP solution was then removed and the cells were rinsed again with PBS before staining with 10% v/v alamarBlue™ Dye (Thermo Fisher Scientific, Schwerte, Germany) in DMEM for 1 h. The fluorescence of the metabolized alamarBlue™ Dye was measured in an Eon microplate reader using excitation and emission filters of 528 and 590 nm, respectively. DMEM and cells exposed to DMEM without AMPs were included as a blank reference and negative control, respectively. Four independent experiments were carried out for each AMP concentration in triplicate. To assess the percentage of viable cells compared to the control, the data were analyzed with GraphPad Prism v5.0 software using non-linear regression to fit the curve (Figure S2). The EC50 was reported as the AMP concentration that reduces cell viability by 50%.

[6] = system: baby hamster kidney cells (BHK21); assay: Cytotoxicity, alamarBlue, BHK-21 cells; assay type: cell-based; settings: 2 h at 37 °C, 0.1–100 µM, alamarBlue fluorescence, non-linear fit, n ≥ 3
Description: as §2, §3

pig erythrocytes = assay: Hemolytic activity on pig erythrocytes; assay type: cell-based; settings: for HC10 (hemolytic concentration) / HC90 (hemolytic concentration) / HC50 (hemolytic concentration) / percentage of hemolysis: 1 h at 37 °C; for HC10 (hemolytic concentration) / HC90 (hemolytic concentration) / HC50 (hemolytic concentration): 6.25–100 µM, absorbance 570 nm, non-linear fit; for HC10 (hemolytic concentration) / HC90 (hemolytic concentration): n ≥ 3; for HC50 (hemolytic concentration): n ≥ 3, n.c. (100) = not convergent at 100 µM; for percentage of hemolysis: 100 µM peptide (highest tested), 10% Triton X-100 = 100% hemolysis
Description: The hemolytic activity of each AMP was determined using pig erythrocytes. Serial dilutions (6.25–100 µM) of each AMP were prepared, and after incubation for 1 h at 37 °C the cells were centrifuged and the absorbance of the supernatant was measured at 570 nm using an Eon Microplate Spectrophotometer (BioTek Instruments, Winooski, VT, USA). Three independent experiments were carried out for each concentration in triplicate. PBS and 10% Triton X–100 were used as negative and positive controls, respectively. The percentage hemolysis was calculated using the formula 100((Apeptide–APBS)/(Atriton–APBS)). The AMP concentration causing 50% hemolysis (HC50) of the pig erythrocytes was determined by non-linear regression with the data fitted to the logistical sigmoidal equation, using GraphPad Prism v5.0 (GraphPad Software, San Diego, CA, USA) (Figure S2).

seven different bacteria = assay: Antibacterial activity against all seven bacteria tested (summary); assay type: cell-based; settings: approximate overall value
Description: as §1

Row | Substance | MIC L. fleischmannii [1] [µM] | MIC E. coli (Escherichia coli (D31)) [µM] | MIC L. grayi (L. grayi (DSM20601)) [µM] | MIC L. monocytogenes [2] [µM] | MIC M. luteus [3] [µM] | MIC S. aureus [4] [µM] | CC50 at 2 h [5] [µM] | EC10 (effective cytotoxic concentration) [6] [µM] | EC90 (effective cytotoxic concentration) [6] [µM] | HC10 (hemolytic concentration) (pig erythrocytes) [µM] | HC90 (hemolytic concentration) (pig erythrocytes) | HC50 (hemolytic concentration) (pig erythrocytes) [µM] | percentage of hemolysis (pig erythrocytes) | hemolytic activity (in words) (pig erythrocytes) | MIC against all seven bacteria tested (seven different bacteria)
1 | FFSALLSGIKSLF-NH2 [Um4] | 4 | 8 | 15 | 8 | 8 | 15 | 87 | 3.22 | 261 |  |  |  |  |  | 
2 | FLSTIWNGIKGLL-NH2 [Uy192] | 4 | 15 | 15 | 8 | 15 | 15 | 52 | 1.92 | 155.90 | 35.85 | 675.22 µM | 155.6 |  |  | 
3 | FLSTIWNGIKSLF-NH2 [D2] | 15 |  |  | 15 | 4 | 8 | 377 | 13.95 | 1130 | 2.94 | 200.83 µM | 24.48 | 64% |  | 
4 | FPFLKLSLKIPKSAIKSAIKRL-NH2 [D10] | 30 | 8 | 8 | 30 | 0.25 |  | 141 | 5.24 | 424.30 | 149.75 | 19,894.17 µM | 1726 | ~ 10% |  | 
5 | FPFLLSLIPSAISAIKRL-NH2 [Uy234] |  |  | 4 | 2 | 2 |  | 6.29 | 0.23 | 18.86 | 55.14 | 198.04 µM | 104.50 |  |  | 
6 | GFWGKLLEGVKKAI-NH2 [D5] | 15 | 15 | 8 | 15 | 8 |  | 67.6 | 2.50 | 202.90 | 110.86 | 24,141.72 µM | 1636 | ~ 10% |  | 
7 | GFWGKLWEGVKSAI-NH2 [Um3] | 4 | 15 | 4 | 8 | 2 | 15 | 63.7 | 2.359 | 191.1 | 70.48 | 246.84 µM | 126.2 |  |  | 
8 | GFWGKLWKPVKKAI-NH2 [D4] | 15 |  | 8 | 30 | 2 |  | 980 | 36.30 | 2940 |  |  |  |  | no hemolytic activity | 
9 | GFWKGKLWKEGVKNAIK [D12, engineered AMP based on UyCT1 but with distributed lysine residues] |  |  |  |  |  |  |  |  |  |  |  |  |  |  | totally inactive
10 | IFGAIWSGIKSLF-NH2 [D1] | 4 | 8 | 8 | 4 | 4 |  | 18.6 | 0.69 | 55.75 | 15.50 | 148.51 µM | 48 |  |  | 
11 | IFKAIWSGIKSLF-NH2 [Um5] | 2 | 15 | 2 | 2 | 2 |  | 9.71 | 0.36 | 29.12 | 11.944 | 293.90 µM | 59.25 |  |  | 
12 | ILSAIWSGIKGLL-NH2 [Uy17] |  |  |  | 15 | 15 | 30 | 73.6 | 2.73 | 220.80 | 26.65 | 718.55 µM | 138.40 |  |  | 
13 | ILSAIWSGIKSLF-NH2 [UyCT3] | 4 | 8 | 8 | 4 | 4 |  | 15.4 | 0.57 | 46.12 | 15.78 | 214.22 µM | 58.15 |  |  | 
14 | ISQSDAILSAIWSGIKSLF-NH2 [Um2] |  |  |  |  | 4 |  | 15.7 | 0.58 | 47.12 | 2.36 | 7033.22 µM | 129 |  |  | 
15 | IWSAIWSGIKGLL-NH2 [UyCT5] | 8 | 15 | 8 | 4 | 4 | 8 | 24.6 | 0.91 | 73.65 | 2.39 | 177.49 µM | 20.59 | 70% |  | 
